pIC50: −log10 of the molar value. Like-named read-outs stand apart in the source and are kept apart here. Blank lines part the entries; values can stand above or below the compound they belong to.
Key:
HIV-1 protease = HIV-1 protease (Human immunodeficiency virus type 1 group M subtype B, UniProt P04585); assay: Fluorogenic assay for screening inhibitors of HIV protease
HIV-13B in MT4 cells = assay: Anti-HIV activity (inhibition of cytopathic effect of HIV) in MT4 cells; type: cell-based; conditions: Human immunodeficiency virus 1, concentration giving 50% inhibition of cytopathic effect of HIV
Source text: The IC50 is the concentration of compound that gives 50% inhibition of the cytopathic effect of HIV. The LC50 is the concentration of compound at which 50% of the cells remain viable.

[1] = pH 4.5, read-out: Percent Inhibition

Compound: CC(C)(C)OC(=O)NN(Cc1ccccc1)C[C@H](O)[C@H](Cc1ccccc1)NC(=O)OCc1cccnc1 [Example 4B, 5S-((3-Pyridinyl)methoxycarbonyl)amino-2-t-butyloxycarbonylamino-4S-hydroxy-1,6-diphenyl-2-azahexane]
pIC50 (HIV-1 protease): 8.41 | inhibition at 0.0039 µM (HIV-1 protease; [1]): 50%

Compound: CC(C)c1nc(CN(C)C(=O)N[C@H](C(=O)NN(Cc2ccccc2)C[C@H](O)[C@H](Cc2ccccc2)NC(=O)OCc2ccccc2)C(C)C)cs1 [Example 6H, 5S-(Benzyloxycarbonyl)amino-2-N-(((N-methyl-N-((2-isopropyl-4-thiazolyl)methyl)amino)carbonyl)-L-valinyl)amino-4S-hydroxy-1,6-diphenyl-2-azahexane]
inhibition at 0.0005 µM (HIV-1 protease; [1]): 73%

Compound: COc1ccc(CN(C[C@H](O)[C@H](Cc2ccccc2)NC(=O)OCc2ccccc2)NC(=O)OC(C)(C)C)cc1 [Example 14B, 5S-N-(Benzyloxycarbonyl)amino-2-N-(t-butyloxycarbonyl)amino-4S-hydroxy-1-p-methoxyphenyl-6-phenyl-2-azahexane]
pIC50 (HIV-1 protease): 8.00 | inhibition at 0.01 µM (HIV-1 protease; [1]): 50%

Compound: COc1cccc(CN(C[C@H](O)[C@H](Cc2ccccc2)NC(=O)OCc2ccccc2)NC(=O)OC(C)(C)C)c1 [Example 17B]
inhibition at 0.012 µM (HIV-1 protease; [1]): 50% | pIC50 (HIV-1 protease; read-out: Inhibitor Concentration (at 50 Percent Inhibition), concentration printed with 50 percent inhibition, pH 4.5, 30° C.): 7.92

Compound: CC(C)(C)OC(=O)NN(Cc1ccoc1)C[C@H](O)[C@H](Cc1ccccc1)NC(=O)OCc1cncs1 [Example 47]
pIC50 (HIV-1 protease): 8.68 | inhibition at 0.0021 µM (HIV-1 protease; [1]): 50%

Compound: CC(C)c1nc(CN(C)C(=O)N[C@H](C(=O)NN(Cc2ccoc2)C[C@H](O)[C@H](Cc2ccccc2)NC(=O)OCc2cncs2)C(C)C)cs1 [Example 48, 5S-(((5-Thiazolyl)methoxy)carbonyl)amino-2-N-(((N-methyl-N-( (2-isopropyl-4-thiazolyl)methyl)amino)carbonyl)-L-valinyl)amino-4S-hydroxy-1-(3-furanyl)-6-phenyl-2-azahexane]
pIC50 (HIV-13B in MT4 cells): 6.94 to 7.06 | inhibition at 0.0005 µM (HIV-1 protease; [1]): 66%

More lines, now with the values ahead:

pIC50 (HIV-1 protease): 8.12 | inhibition at 0.0075 µM (HIV-1 protease; [1]): 50%
Compound: CC(C)(C)OC(=O)NN(Cc1ccc(O)cc1)C[C@H](O)[C@H](Cc1ccccc1)NC(=O)OCc1ccccc1 [Example 52, 5S-(Benzyloxycarbonyl)amino-2-(t-butyloxycarbonyl)amino-4S-hydroxy-1-(4-hydroxyphenyl)-6-phenyl-2-azahexane]

pIC50 (HIV-1 protease): 8.13 | inhibition at 0.0074 µM (HIV-1 protease; [1]): 50%
Compound: CC(C)(C)OC(=O)NN(Cc1cccc(O)c1)C[C@H](O)[C@H](Cc1ccccc1)NC(=O)OCc1ccccc1 [Example 55C, 5S-(Benzyloxycarbonyl)amino-2-(t-butyloxycarbonyl)amino-4S-hydroxy-1-(3-hydroxyphenyl)-6-phenyl-2-azahexane]

inhibition at 0.0005 µM (HIV-1 protease; [1]): 49%
Compound: CC(C)c1nc(CN(C)C(=O)N[C@H](C(=O)NN(Cc2cccc(O)c2)C[C@H](O)[C@H](Cc2ccccc2)NC(=O)OCc2cncs2)C(C)C)cs1 [Example 56B, 5S-(((5-Thiazolyl)methoxy)carbonyl)amino-2-N-((((N-methyl-N-2-isopropyl-4-thiazolyl)methyl)amino)carbonyl)-L-valinylamino-4S-hydroxy-1-(3-hydroxyphenyl)-6-phenyl-2-azahexane]

pIC50 (HIV-1 protease): 8.00 | inhibition at 0.0099 µM (HIV-1 protease; [1]): 50%
Compound: CC(C)(C)OC(=O)NN(Cc1ccc(OCCN2CCOCC2)cc1)C[C@H](O)[C@H](Cc1ccccc1)NC(=O)OCc1ccccc1 [Example 57C, 2-(t-Butyloxycarbonyl)amino-5S-(benzyloxycarbonyl)amino-4S-hydroxy-1-(4-((2-morpholinyl)ethoxy)phenyl)-6-phenyl-2-azahexane]

pIC50 (HIV-1 protease): 7.74 | inhibition at 0.018 µM (HIV-1 protease; [1]): 50%
Compound: CC(C)(C)OC(=O)NN(Cc1ccc(-c2ccccc2)cc1)C[C@H](O)[C@H](Cc1ccccc1)NC(=O)OCc1ccccc1 [Example 58, 2-(t-Butyloxycarbonyl)amino-5S-(benzyloxycarbonyl)amino-4S-hydroxy-1-(4-biphenyl)-6-phenyl-2-azahexane]

Source: patent publication US5461067A, “Retroviral protease inhibiting compounds” (priority 1994, dated 1995)
